# Laboratory results as given in article PMC10916402, “Meropenem-ANT3310, a unique β-lactam-β-lactamase inhibitor combination with expanded antibacterial spectrum against Gram-negative pathogens including carbapenem-resistant Acinetobacter baumannii” (Antimicrobial Agents and Chemotherapy, 2024).
# Read-outs that look alike come from different tables or passages of the source.
# How the values were obtained:
# [1] = test system: A. baumannii clinical isolates; assay: Broth microdilution MIC, A. baumannii clinical isolates; assay type: cell-based, Acinetobacter baumannii; details: for CLSI % Res: for MEM-ANT3310 % at ≥16 µg/mL; for MIC90: read-out: MIC90
# Protocol: (§1) All isolates were randomly selected from the frozen culture collection of IHMA collected in 2018 and 2019. Matrix-assisted laser desorption ionization-time of flight mass spectrometry was used to confirm the identity of the organisms tested (Bruker Daltonics, Bremen, Germany).
# (§2) MICs for all antimicrobial agents were determined at IHMA by broth microdilution in accordance with both CLSI ([17]) and EUCAST ([18]) guidelines. Microtiter panels were prepared by IHMA and stored at −70°C in cation-adjusted Mueller Hinton broth (CAMHB) (Becton Dickinson). Iron-depleted CAMHB was used to test cefiderocol. Panels containing ANT3310 were prepared fresh on the day of testing. […] MIC values corresponded to the first well with no visible growth. Quality control testing was performed on each day of testing with E. coli ATCC 25922, P. aeruginosa ATCC 27853, K. pneumoniae ATCC 700603 and BAA 1705, and A. baumannii NCTC 13304. MICs were interpreted using 2023 CLSI ([17]) and EUCAST ([18]) BPs.
# [2] = test system: KPC-producing Enterobacterales (KPC-CRE); assay: organism not typed; assay type: cell-based
# Protocol: as §1, §2
# [3] = test system: OXA-producing Enterobacterales (OXA-CRE); assay: organism not typed; assay type: cell-based
# Protocol: as §1, §2
# [4] = test system: P. aeruginosa clinical isolates; assay: Broth microdilution MIC, P. aeruginosa clinical isolates; assay type: cell-based, Pseudomonas aeruginosa; details: 502 P. aeruginosa, 2019 global collection
# Protocol: as §1, §2
# [5] = test system: carbapenem-resistant Acinetobacter baumannii (CRAB) clinical isolates; assay: Broth microdilution MIC, CRAB isolates; assay type: cell-based; details: for Number of isolates inhibited at MIC of 0.25 µg/mL / Number of isolates inhibited at MIC of 0.5 µg/mL / Number of isolates inhibited at MIC of 1 µg/mL / Number of isolates inhibited at MIC of 2 µg/mL / Number of isolates inhibited at MIC of 4 µg/mL / Number of isolates inhibited at MIC of 8 µg/mL / Number of isolates inhibited at MIC of 16 µg/mL / Number of isolates inhibited at MIC of 32 µg/mL / Number of isolates inhibited at MIC of >32 µg/mL / Number of isolates inhibited at MIC of ≤0.125 µg/mL / MIC50 / MIC90: CRAB (MEM MICs >4 µg/mL); for CLSI % Res / CLSI % Sus: CRAB, CLSI BP; for CLSI % Res: for MEM-ANT3310 % at ≥16 µg/mL; for CLSI % Sus: for MEM-ANT3310 % inhibited at ≤8 µg/mL; for MIC90: read-out: MIC90
# Protocol: as §1, §2
# [6] = 2018 Global collection, All A. baumannii, N 500
# [7] = 2019 Global collection, All A. baumannii, N 405
# [8] = 180 KPC-producing Enterobacterales, EUCAST BP
# [9] = 252 OXA-producing Enterobacterales, EUCAST BP
smiles,measurement,setting,value
"CC(C)(O/N=C(\C(=O)N[C@@H]1C(=O)N2C(C(=O)[O-])=C(C[N+]3(CCNC(=O)c4ccc(O)c(O)c4Cl)CCCC3)CS[C@H]12)c1csc(N)n1)C(=O)O [Cefiderocol, cefiderocol]",Number of isolates inhibited at MIC of 0.25 µg/mL,[1]; [6],83
same,Number of isolates inhibited at MIC of 0.5 µg/mL,[1]; [6],111
same,Number of isolates inhibited at MIC of 1 µg/mL,[1]; [6],78
same,Number of isolates inhibited at MIC of 2 µg/mL,[1]; [6],52
same,Number of isolates inhibited at MIC of 4 µg/mL,[1]; [6],24
same,Number of isolates inhibited at MIC of 8 µg/mL,[1]; [6],3
same,Number of isolates inhibited at MIC of 16 µg/mL,[1]; [6],3
same,Number of isolates inhibited at MIC of 32 µg/mL,[1]; [6],2
same,Number of isolates inhibited at MIC of >32 µg/mL,[1]; [6],21
same,Number of isolates inhibited at MIC of ≤0.125 µg/mL,[1]; [6],123
same,CLSI % Res,"[1]; 2018 Global collection, All A. baumannii, N 500, CLSI BP",10.6%
same,MIC50,[1]; [7],0.5 µg/mL
same,Number of isolates inhibited at MIC of 0.25 µg/mL,[1]; [7],72
same,Number of isolates inhibited at MIC of 0.5 µg/mL,[1]; [7],99
same,Number of isolates inhibited at MIC of 1 µg/mL,[1]; [7],64
same,Number of isolates inhibited at MIC of 2 µg/mL,[1]; [7],35
same,Number of isolates inhibited at MIC of 4 µg/mL,[1]; [7],19
same,Number of isolates inhibited at MIC of 8 µg/mL,[1]; [7],12
same,Number of isolates inhibited at MIC of 16 µg/mL,[1]; [7],8
same,Number of isolates inhibited at MIC of 32 µg/mL,[1]; [7],2
same,Number of isolates inhibited at MIC of >32 µg/mL,[1]; [7],18
same,Number of isolates inhibited at MIC of ≤0.125 µg/mL,[1]; [7],76
same,CLSI % Res,"[1]; 2019 Global collection, All A. baumannii, N 405, CLSI BP",14.6%
same,CLSI % Sus,"[1]; 2019 Global collection, All A. baumannii, N 405, CLSI BP, for MEM-ANT3310 % inhibited at ≤8 µg/mL",76.8%
same,MIC50,"[1]; Acinetobacter baumannii, 2018 Global collection, All A. baumannii, N 500, read-out: MIC50",0.5 µg/mL
same,MIC90,"[1]; Acinetobacter baumannii, 2018 Global collection, All A. baumannii, N 500",4 µg/mL
same,MIC90,"[1]; Acinetobacter baumannii, 2019 Global collection, All A. baumannii, N 405",4 µg/mL
same,MIC90,"[1]; Acinetobacter baumannii, A. baumannii, one or both of the 2018/2019 collections",4 µg/mL
same,MIC50,[2],1 µg/mL
same,MIC90,[2],4 µg/mL
same,CLSI % Res,"[2]; 180 KPC-producing Enterobacterales, CLSI BP, for MEM-ANT3310 % at ≥16 µg/mL",0%
same,CLSI % Sus,"[2]; 180 KPC-producing Enterobacterales, CLSI BP, for MEM-ANT3310 % inhibited at ≤8 µg/mL",100%
same,EUCAST % Res,[2]; [8],27.2%
same,EUCAST % Sus,[2]; [8],72.8%
same,MIC50,[3],1 µg/mL
same,MIC90,[3],4 µg/mL
same,CLSI % Res,"[3]; 252 OXA-producing Enterobacterales, CLSI BP, for MEM-ANT3310 % at ≥16 µg/mL",0.4%
same,CLSI % Sus,"[3]; 252 OXA-producing Enterobacterales, CLSI BP, for MEM-ANT3310 % inhibited at ≤8 µg/mL",98.8%
same,EUCAST % Res,[3]; [9],21.8%
same,EUCAST % Sus,[3]; [9],78.2%
same,Number of isolates inhibited at MIC of 0.25 µg/mL,[4],125
same,Number of isolates inhibited at MIC of 0.5 µg/mL,[4],92
same,Number of isolates inhibited at MIC of 1 µg/mL,[4],33
same,Number of isolates inhibited at MIC of 2 µg/mL,[4],16
same,Number of isolates inhibited at MIC of 4 µg/mL,[4],7
same,Number of isolates inhibited at MIC of 8 µg/mL,[4],1
same,Number of isolates inhibited at MIC of 32 µg/mL,[4],1
same,Number of isolates inhibited at MIC of ≤0.125 µg/mL,[4],227
same,MIC50,"[4]; Pseudomonas aeruginosa, read-out: MIC50",0.25 µg/mL
same,MIC90,"[4]; Pseudomonas aeruginosa, read-out: MIC90",1 µg/mL
same,Number of isolates inhibited at MIC of 0.25 µg/mL,"[5]; 2018 Global collection, N 363",63
same,Number of isolates inhibited at MIC of 0.5 µg/mL,"[5]; 2018 Global collection, N 363",99
same,Number of isolates inhibited at MIC of 1 µg/mL,"[5]; 2018 Global collection, N 363",72
same,Number of isolates inhibited at MIC of 2 µg/mL,"[5]; 2018 Global collection, N 363",49
same,Number of isolates inhibited at MIC of 4 µg/mL,"[5]; 2018 Global collection, N 363",21
same,Number of isolates inhibited at MIC of 8 µg/mL,"[5]; 2018 Global collection, N 363",3
same,Number of isolates inhibited at MIC of 16 µg/mL,"[5]; 2018 Global collection, N 363",3
same,Number of isolates inhibited at MIC of 32 µg/mL,"[5]; 2018 Global collection, N 363",2
same,Number of isolates inhibited at MIC of >32 µg/mL,"[5]; 2018 Global collection, N 363",17
same,Number of isolates inhibited at MIC of ≤0.125 µg/mL,"[5]; 2018 Global collection, N 363",34
same,CLSI % Res,"[5]; 2018 Global collection, N 363",12.7%
same,CLSI % Sus,"[5]; 2018 Global collection, N 363",73.8%
same,MIC50,"[5]; 2019 Global collection, N 340",0.5 µg/mL
same,Number of isolates inhibited at MIC of 0.25 µg/mL,"[5]; 2019 Global collection, N 340",64
same,Number of isolates inhibited at MIC of 0.5 µg/mL,"[5]; 2019 Global collection, N 340",93
same,Number of isolates inhibited at MIC of 1 µg/mL,"[5]; 2019 Global collection, N 340",61
same,Number of isolates inhibited at MIC of 2 µg/mL,"[5]; 2019 Global collection, N 340",34
same,Number of isolates inhibited at MIC of 4 µg/mL,"[5]; 2019 Global collection, N 340",19
same,Number of isolates inhibited at MIC of 8 µg/mL,"[5]; 2019 Global collection, N 340",9
same,Number of isolates inhibited at MIC of 16 µg/mL,"[5]; 2019 Global collection, N 340",8
same,Number of isolates inhibited at MIC of 32 µg/mL,"[5]; 2019 Global collection, N 340",2
same,Number of isolates inhibited at MIC of >32 µg/mL,"[5]; 2019 Global collection, N 340",18
same,Number of isolates inhibited at MIC of ≤0.125 µg/mL,"[5]; 2019 Global collection, N 340",32
same,CLSI % Res,"[5]; 2019 Global collection, N 340",16.5%
same,CLSI % Sus,"[5]; 2019 Global collection, N 340",73.5%
same,MIC50,"[5]; Acinetobacter baumannii, 2018 Global collection, N 363, read-out: MIC50",0.5 µg/mL
same,MIC90,"[5]; Acinetobacter baumannii, 2018 Global collection, N 363",4 µg/mL
same,MIC90,"[5]; Acinetobacter baumannii, 2019 Global collection, N 340",8 µg/mL
